Consider three compounds from patent US7183304B2, “Heterocyclic compounds and methods of use” (Novartis AG, priority 2001, dated 2007).

What all share (format): biochemical
Common to all, as to settings: TR-FRET coactivator (SRC-1) recruitment
Background: In TR-FRET formats the signal depends on donor and acceptor labels being close together.

Assay [1] deals with T1, PPARδ receptor (GST-hPPARδ LBD) (Homo sapiens, UniProt Q03181).
T1 construct: GST-hPPARδ LBD (amino acids 139–442); made in house; host or cells: E. coli BL21 (DE3), pGEX vector
T1 sequence (Q03181 139-441 limits assumed): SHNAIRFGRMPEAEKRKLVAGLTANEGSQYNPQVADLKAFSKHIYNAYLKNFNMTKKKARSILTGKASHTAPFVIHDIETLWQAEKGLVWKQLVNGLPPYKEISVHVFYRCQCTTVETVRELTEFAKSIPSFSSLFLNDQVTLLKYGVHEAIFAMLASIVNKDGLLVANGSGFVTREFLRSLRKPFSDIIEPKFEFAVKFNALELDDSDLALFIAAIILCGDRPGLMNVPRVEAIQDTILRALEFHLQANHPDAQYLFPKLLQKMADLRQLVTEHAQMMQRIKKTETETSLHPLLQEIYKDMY
T1 sequence (Q15788 676-700 partner limits assumed): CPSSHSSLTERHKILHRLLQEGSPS
The assay is described as follows: PPARδ functional binding assay (CARLA, TR-FRET). Here is the method: (§1) The in vitro functional binding to the PPARα, PPARδ and PPARγ receptors is determined as follows:
(§2) The functional binding assays for the PPARα, PPARδ and PPARγ receptors are a variation of the coactivator-dependent receptor ligand assay (CARLA) (see Krey et al., “Fatty Acids, Eicosanoids, and Hypolipidemic Agents Identified as Ligands of Peroxisome Proliferator-Activated Receptors by Coactivator-Dependent Receptor Ligand Assay”, Molecular Endocrinology, Vol. 11, pp. 779–791 (1997)). The present CARLA assays use a TR-FRET detection method previously reviewed (see Hemmila, “LANCE: Homogeneous Assay Platform for HTS”, J. Biomol. Screening, Vol. 4, pp. 303–307 (1999); Mathis, “HTRF Technology”, J. Biomol. Screening, Vol. 4, pp. 309–313 (1999)). All assays included 3 nM of the glutathione-S-transferase (GST) fusion proteins of either the hPPARα ligand binding domain (LBD) (amino acids 167–468) (GST-hPPARα LBD), GST-hPPARδ LBD (amino acids 139–442) or GST-hPPARγ LBD (amino acids 175–476); 3 nM Eu-labeled anti-GST antibody (Wallac); 30 nM biotinylated steroid receptor coactivator-1 (SRC-1) peptide (an N-terminal biotinylated peptide, […], derived from amino acids 676–700 of SRC-1); and 10 nM streptavidin-labelled allophycocyanin (APC; Prozyme). The binding of a ligand to a PPAR LBD alters the conformation of the LBD and permits the biotinylated SRC-1 peptide to bind. This brings the Eu-labeled anti-GST antibody and the strepavidin-labeled APC in close proximity, thereby facilitating fluorescence energy transfer. The biotinylated SRC-1 peptide is prepared by standard solid-phase peptide synthetic methods. The GST-PPAR LBDs are expressed in pGEX vectors (Amersham Pharmacia) in the E. coli strain BL21 (DE3) using standard expression conditions at 18° C. In some cases the GST-PPAR LBDs are co-expressed with groESL. […] After mixing all components, the reaction mixture stands for 3 hours at room temperature before reading the TR-FRET (Time-Resolved Fluorescence Resonance Energy Transfer) signal on a Wallac Victor 2 plate reader (measuring the ratio of signals at […]). […]

The target in assay [2] is T2, PPARα receptor (GST-hPPARα LBD) (Homo sapiens, UniProt Q07869).
T2 construct: made in house; host or cells: E. coli BL21 (DE3), pGEX vector
T2 sequence (Q07869 167-468): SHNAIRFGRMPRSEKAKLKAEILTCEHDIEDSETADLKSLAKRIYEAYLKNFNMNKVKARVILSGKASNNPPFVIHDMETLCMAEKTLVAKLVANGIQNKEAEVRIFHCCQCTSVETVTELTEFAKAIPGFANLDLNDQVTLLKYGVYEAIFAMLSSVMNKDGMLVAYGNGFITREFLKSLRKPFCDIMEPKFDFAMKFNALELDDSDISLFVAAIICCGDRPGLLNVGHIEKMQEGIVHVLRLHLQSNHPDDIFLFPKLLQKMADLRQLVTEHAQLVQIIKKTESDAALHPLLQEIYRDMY
The assay is described as follows: PPARα functional binding assay (CARLA, TR-FRET). Here is the method:
as §1, §2

In assay [3] the target is T3, PPARγ receptor (GST-hPPARγ LBD) (Homo sapiens, UniProt P37231).
T3 construct: GST-hPPARγ LBD (amino acids 175–476); made in house; host or cells: E. coli BL21 (DE3), pGEX vector
T3 sequence (P37231 175-476 isoform P37231-2): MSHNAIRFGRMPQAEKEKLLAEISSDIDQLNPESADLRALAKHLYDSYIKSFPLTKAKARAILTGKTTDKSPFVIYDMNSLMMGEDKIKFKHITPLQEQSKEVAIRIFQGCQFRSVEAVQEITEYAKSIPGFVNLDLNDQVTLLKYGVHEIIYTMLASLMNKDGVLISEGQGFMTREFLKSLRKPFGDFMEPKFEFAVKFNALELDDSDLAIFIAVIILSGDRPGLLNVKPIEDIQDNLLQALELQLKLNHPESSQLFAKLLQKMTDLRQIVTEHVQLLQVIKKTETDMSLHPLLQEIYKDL
The assay can be described thus: PPARγ functional binding assay (CARLA, TR-FRET). Here is the method:
as §1, §2

With `CCCc1cc(Oc2ccccc2)ccc1OCCCOc1ccc(S(=O)(=O)N2c3ccccc3C[C@@H]2C(=O)O)cc1` [Example 1, (R)-1-{4-[3-(4-Phenoxy-2-propyl-phenoxy)-propoxy]-benzenesulfonyl}-2,3-dihydro-1H-indole-2-carboxylic acid], the EC50 (commonly the concentration giving half of the maximal effect) is ~173 nM in assay [1], ~27 nM in assay [2] and ~23 nM in assay [3].
The corresponding values for `Cc1oc(-c2ccccc2)nc1COc1ccc(S(=O)(=O)N2CC[C@@H]2C(=O)O)cc1` [Example 5–10, (R)-1-[4-(5-Methyl-2-phenyl-oxazol-4-ylmethoxy)-benzenesulfonyl]-azetidine-2-carboxylic acid] are ~1250 nM, ~3 nM and ~3 nM.
On to `Cc1oc(-c2ccccc2)nc1COc1ccc(S(=O)(=O)N2CCC[C@@H]2C(=O)O)cc1` [Example 6–39, (R)-1-[4-(5-Methyl-2-phenyl-oxazol-4-ylmethoxy)-benzenesulfonyl]-pyrrolidine-2-carboxylic acid], for which the EC50 in assay [1] was ~1160 nM; in assay [2] it was ~7 nM; in assay [3] it was ~2 nM.
